Test results from US5173510A, “Simplified thioester and isostere analogs of oleoyl coenzyme A as hypocholesterolemic agents” (American Cyanamid Company, priority 1991, dated 1992).

Biological target: T1, acyl coenzyme A: cholesterol O-acyltransferase (ACAT) (Oryctolagus cuniculus, UniProt G1SFD9)
T1 construct: The microsomal fraction was isolated by centrifugation and stored frozen; from tissue; host or cells: jejunal mucosa microsomes of New Zealand white rabbits
T1 sequence (G1SFD9 1-524): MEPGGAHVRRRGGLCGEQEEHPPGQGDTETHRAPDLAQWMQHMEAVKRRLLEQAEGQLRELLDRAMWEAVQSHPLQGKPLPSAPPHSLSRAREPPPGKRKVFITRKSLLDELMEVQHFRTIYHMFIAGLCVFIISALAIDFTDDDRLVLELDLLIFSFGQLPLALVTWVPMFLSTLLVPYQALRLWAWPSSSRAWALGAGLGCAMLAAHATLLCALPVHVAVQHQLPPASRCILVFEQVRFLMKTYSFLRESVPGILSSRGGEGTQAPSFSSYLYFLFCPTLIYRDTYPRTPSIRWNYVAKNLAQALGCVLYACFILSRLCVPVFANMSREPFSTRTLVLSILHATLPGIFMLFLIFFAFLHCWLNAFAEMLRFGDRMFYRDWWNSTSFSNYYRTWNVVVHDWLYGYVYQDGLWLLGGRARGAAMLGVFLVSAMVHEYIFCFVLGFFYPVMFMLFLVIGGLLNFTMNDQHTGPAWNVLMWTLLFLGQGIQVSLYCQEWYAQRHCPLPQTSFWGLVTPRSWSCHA
Assay: Inhibition of ACAT catalyzed formation of cholesterol oleate from endogenous cholesterol and exogenous 14C oleate
Type: biochemical, New Zealand white rabbits
Details: for IC50: concentration at which 50% of the cholesterol esterification reaction is inhibited, rabbit jejunum mucosa microsomal fraction; for potency as inhibitors of the ACAT enzyme catalyzed reaction (in words): summary statement on Table I
Description: The compounds of this invention were tested for their ability to inhibit the acyl coenzyme A: cholesterol O-acyltransferase (ACAT) catalyzed formation of cholesterol oleate from endogenous cholesterol and exogenous ^14 C oleate.
The mucosa from the Jejunum of New Zealand white rabbits was removed by scraping with a spatula and homogenized in a solution containing 0.25M sucrose, 1 mM EDTA, 1 mM dithiothreitol and 5 mM of potassium phosphate (pH 7.4). The microsomal fraction was isolated by centrifugation and stored frozen at -70° C. in sucrose buffer (3 mg protein/ml) until use. The ACAT reaction was assayed using the method of S. Hashimoto, et al., Life Science 12, 1 (1973). The test compounds were dissolved in methanol at concentrations such that the addition of 0.003 ml in a reaction volume of 0.5 ml gave the final desired concentration.
Referring to the table, IC50 indicates the concentration of the compound at which 50% of the cholesterol esterfication reaction is inhibited. […] As can be observed from the table, the compounds of the present invention are very potent inhibitors of the ACAT enzyme catalyzed reaction. […] In view of the results presented in the table, these compounds are useful for controlling and reducing the cholesteryl ester content of mammalian arterial walls and decreasing the accumulation and storage of cholesterol in the arterial walls of mammals. Further, the compounds of this invention may inhibit the formation or development of atherosclerotic lesions in mammals.

IC50 [µM]	potency as inhibitors of the ACAT enzyme catalyzed reaction (in words)	SMILES
3.3	most potent	CCCCCCCC/C=C\CCCCCCCC(=O)NCCNC(=O)CCNC(=O)C(O)C(C)(C)CO (stereo not drawn) [Example 26, N-[2-[[3-[(2,4-Dihydroxy-3,3-dimethyl-1-oxo-butyl)amino]-1-oxopropyl]amino]ethyl]-9(Z)-octadecenamide]
47		CCCCCCCC/C=C\CCCCCCCC(O)CCCNC(C)=O (stereo not drawn) [Example 31]
66		CCCCCCCC/C=C\CCCCCCCC(=O)CCCNC(C)=O [Example 32]
108		CCCCCCCC/C=C\CCCCCCCC(O)CCCNC(=O)CCNC(C)=O (stereo not drawn) [Example 33, 3-(Acetylamino)-N-(4-hydroxy-12(Z)-heneicosenyl)propanamide]
113		CCCCCCCC/C=C\CCCCCCCC(=O)CCCNC(=O)CCNC(C)=O [Example 34, 3-(Acetylamino)-N-(4-oxo-12(Z)-heneicosenyl)propanamide]
99		CCCCCCCC/C=C\CCCCCCCC(=O)CCCNC(=O)CCNC(=O)C(O)C(C)(C)CO (stereo not drawn) [Example 37, 2,4-Dihydroxy-2,2-dimethyl-N-[3-oxo-3-[(4-oxo-12(Z)-heneicosenyl)amino]propyl]butanamide]
57		CCCCCCCC/C=C\CCCCCCCC(O)CCCNC(=O)CCNC(=O)C(O)C(C)(C)CO (stereo not drawn) [Example 38, 2,4-Dihydroxy-N-[3-[(4-hydroxy-12(Z)-heneicosyl)amino]-3-oxopropyl]-3,3-dimethylbutanamide]

Continued, compound first:

SMILES	IC50 [µM]	potency as inhibitors of the ACAT enzyme catalyzed reaction (in words)
CCCCCCCC/C=C\CCCCCCCC(=O)SCCNC(C)=O [Example 3, S-[2-(Acetylamino)ethyl]-9(Z)-octadecenethioic acid]	> 100	
CCCCCCCC/C=C\CCCCCCCC(=O)SCCNC(=O)CCNC(C)=O [Example 6, S-[2-[[3-(Acetylamino)-1-oxopropyl]amino]ethyl]-9(Z)-octadecenethioate]	> 100	
CCCCCCCC/C=C\CCCCCCCC(=O)SCCNC(=O)CCNC(=O)[C@H](O)C(C)(C)CO [Example 10, S-[2-[[3-[(2,4-Dihydroxy-3,3-dimethyl-1-oxobutyl)amino]-1-oxopropyl]amino]ethyl]-9(Z)octadecenethioic acid]	103	
CCCCCCCC/C=C\CCCCCCCC(=O)OCCNC(C)=O [Example 11]	> 100	
CCCCCCCC/C=C\CCCCCCCC(=O)OCCNC(=O)CCNC(C)=O [Example 13, 2-[[3-(Acetylamino)-1-oxopropyl]amino]ethyl-9(Z)-octadecenoate]	> 150	
CCCCCCCC/C=C\CCCCCCCC(=O)OCCNC(=O)CCNC(=O)C(O)C(C)(C)CO (stereo not drawn) [Example 17, 2-[[3-[(2,4-Dihydroxy-3,3-dimethyl-1-oxo-butyl)amino]-1-oxopropyl]amino]ethyl-9(Z)-octadecenoate]	77	
CCCCCCCC/C=C\CCCCCCCC(=O)NCCNC(C)=O [Example 18, N-[2-(Acetylamino)ethyl]-9(Z)-octadecenamide]	39	
CCCCCCCC/C=C\CCCCCCCC(=O)NCCNC(=O)CCNC(C)=O [Example 22, N-[2-[[3-(Acetylamino)-1-oxopropyl]amino]ethyl]-9(Z)-octadecenamide]	> 100	
CCCCCCCC/C=C\CCCCCCCC(=O)NCCNC(=O)CCNC(=O)C1OC(C)(C)OCC1(C)C (stereo not drawn) [Example 25, 2,2,5,5-Tetramethyl-N-[3-oxo-3-[[2-[(1-oxo-9(Z)-octadecenyl)amino]ethyl]amino]propyl]-1,3-dioxane-4-carboxamide]	1.2	most potent
